Consider one compound from PubChem BioAssay AID504935 (The Scripps Research Institute Molecular Screening Center, 2011).

Test [1] relates to U87 vII cell line. Put plainly: U87 glioblastoma viability loss – cell-based, luminescence, U87 vII, cytotoxicity control for Wee1 degradation inhibitor project, dose response (AID 504935). The following applies: U87 cells cytotoxicity.
Test [2] has as its system U87 cell line. The description is as above. The following applies: U87 cells cytotoxicity.

As a reminder, the IC50 is the concentration that gives 50% inhibition. As to `O=[N+]([O-])c1cccc2[nH]c(CNc3nc(N4CCOCC4)nc4c3ncn4-c3ccsc3)nc12`, the values for the IC50 in test [1] and in test [2] were 23.4 nM and 95.1 nM, respectively.
